Assay results published in PubChem BioAssay AID330 (DTP/NCI, 2004).
Several values for one entry are separate records, joined by “and”; a condition that tells them apart may be missing. Equal entries are not always repeated. Toxic doses and inconclusive results are not listed.

Tested on: P388 leukemia ip, CD2F1 mice, survival T/C
Test: NCI In Vivo Anticancer Drug Screen. Data for tumor model P388 Leukemia (intraperitoneal) in CD2F1 (CDF1) mice
Details: endpoint: median survival time, higher = longer survival
How it was run: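 Mice carrying the transplanted tumor received test compound or vehicle. Survival was recorded in each group, and the value is the treated-group measurement divided by that of the vehicle-treated control group.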

[1] = dose: 50.0 mg/kg/injection, schedule: Q01DX005 (ip), vehicle: Klucel (hydroxypropylcellulose) (HPC)
[2] = dose: 100.0 mg/kg/injection, schedule: Q01DX005 (ip), vehicle: Klucel (hydroxypropylcellulose) (HPC)
[3] = dose: 25.0 mg/kg/injection, schedule: Q01DX009 (ip), vehicle: saline
[4] = dose: 50.0 mg/kg/injection, schedule: Q01DX009 (ip), vehicle: saline
[5] = dose: 100.0 mg/kg/injection, schedule: Q01DX009 (ip), vehicle: saline
[6] = dose: 200.0 mg/kg/injection, schedule: Q01DX009 (ip), vehicle: saline
[7] = dose: 50.0 mg/kg/injection, schedule: Q01DX009 (ip), vehicle: suspension in saline
[8] = dose: 25.0 mg/kg/injection, schedule: Q01DX005 (ip), vehicle: saline
[9] = dose: 50.0 mg/kg/injection, schedule: Q01DX005 (ip), vehicle: saline
[10] = dose: 12.5 mg/kg/injection, schedule: Q01DX009 (ip), vehicle: saline

In the case of `C[n+]1c2ccccc2c(N)c2ccccc21`, the T/C (dose: 30.0 mg/kg/injection, schedule: Q04DX002 (ip), vehicle: saline with Tween-80) is reported as 117 % of control.
`O[Si](c1ccccc1)(c1ccccc1)c1ccccc1.O[Si](c1ccccc1)(c1ccccc1)c1ccccc1.O[Si](c1ccccc1)(c1ccccc1)c1ccccc1.[O]=[V]` was tested, and the T/C [1] was 92 % of control, the T/C [2] was 90 % of control and the T/C (dose: 200.0 mg/kg/injection, schedule: Q01DX005 (ip), vehicle: Klucel (hydroxypropylcellulose) (HPC)) was 92 % of control.
In the case of `Cl[Si](Cl)(Cl)CCc1ccccn1`, the T/C [3] is reported as 99 % of control, the T/C [4] is reported as 86 % of control and the T/C [5] is reported as 95 % of control. The T/C [6] was 100 % of control.
With `Cn1c(=O)oc2cc(NC(N)=O)c(Br)cc21` the T/C [1] was 92 % of control and the T/C [2] was 87 % of control.
`C/C(=N\O)c1ccc2c3c(ccc([N+](=O)[O-])c13)CC2` was tested, and the T/C (dose: 6.25 mg/kg/injection, schedule: Q01DX009 (ip), vehicle: suspension in saline) was 97 % of control, the T/C (dose: 12.5 mg/kg/injection, schedule: Q01DX009 (ip), vehicle: suspension in saline) was 98 % of control and the T/C (dose: 25.0 mg/kg/injection, schedule: Q01DX009 (ip), vehicle: suspension in saline) was 97 % of control. For the same compound, the T/C [7] was 96 % of control.
With `O=[N+]([O-])c1ccc(NN=C(CO)CO)c([N+](=O)[O-])c1` the T/C [7] was 98 % of control, the T/C (dose: 100.0 mg/kg/injection, schedule: Q01DX009 (ip), vehicle: suspension in saline) was 98 % of control and the T/C (dose: 200.0 mg/kg/injection, schedule: Q01DX009 (ip), vehicle: suspension in saline) was 97 % of control. For the same compound, the T/C (dose: 400.0 mg/kg/injection, schedule: Q01DX009 (ip), vehicle: suspension in saline) was 97 % of control.
With `CC1COC2(CCC(=CBr)CC2)O1` (stereo unspecified) the T/C (dose: 100.0 mg/kg/injection, schedule: Q01DX001 (ip), vehicle: Klucel (hydroxypropylcellulose) (HPC)) was 96 % of control, the T/C (dose: 200.0 mg/kg/injection, schedule: Q01DX001 (ip), vehicle: Klucel (hydroxypropylcellulose) (HPC)) was 107 % of control and the T/C (dose: 400.0 mg/kg/injection, schedule: Q01DX001 (ip), vehicle: Klucel (hydroxypropylcellulose) (HPC)) was 100 % of control.
For `O=C1c2ccccc2C(=O)c2c(NCCO)ccc(NCCO)c21`, the T/C (dose: 25.0 mg/kg/injection, schedule: Q04DX002 (ip), vehicle: saline with Tween-80) was 96 % of control, the T/C (dose: 50.0 mg/kg/injection, schedule: Q04DX002 (ip), vehicle: saline with Tween-80) was 91 % of control and the T/C (dose: 100.0 mg/kg/injection, schedule: Q04DX002 (ip), vehicle: saline with Tween-80) was 95 % of control. For the same compound, the T/C (dose: 200.0 mg/kg/injection, schedule: Q04DX002 (ip), vehicle: saline with Tween-80) was 90 % of control.
For `S=C(Nc1ccccc1)Nc1nccs1`, the T/C (dose: 50.0 mg/kg/injection, schedule: Q01DX009 (ip), vehicle: saline with Tween-80) was 108 % of control, the T/C (dose: 100.0 mg/kg/injection, schedule: Q01DX009 (ip), vehicle: saline with Tween-80) was 107 % of control and the T/C (dose: 200.0 mg/kg/injection, schedule: Q01DX009 (ip), vehicle: saline with Tween-80) was 117 % of control.
For `CN(C)C1C(=O)C(C(=O)NCN2CCN(CCO)CC2)=C(O)C2(O)C(=O)C3=C(O)c4c(O)cccc4C(C)(O)C3CC12` (stereo unspecified), the T/C [8] was 104 % of control, the T/C [9] was 102 % of control and the T/C (dose: 100.0 mg/kg/injection, schedule: Q01DX005 (ip), vehicle: saline) was 104 % of control. For the same compound, the T/C (dose: 200.0 mg/kg/injection, schedule: Q01DX005 (ip), vehicle: saline) was 95 % of control.
With `COc1ccc(-n2c(C)c(COC(C)=O)c(COC(C)=O)c2C)cc1` the T/C [10] was 157 % of control and 163 % of control.
With `c1ccc(-c2nnc(-c3ccccc3)nn2)cc1` the T/C (dose: 50.0 mg/kg/injection, schedule: Q04DX003 (ip), vehicle: saline with Tween-80) was 100 % of control, the T/C (dose: 100.0 mg/kg/injection, schedule: Q04DX003 (ip), vehicle: saline with Tween-80) was 100 % of control and the T/C (dose: 200.0 mg/kg/injection, schedule: Q04DX003 (ip), vehicle: saline with Tween-80) was 97 % of control. For the same compound, the T/C (dose: 400.0 mg/kg/injection, schedule: Q04DX003 (ip), vehicle: saline with Tween-80) was 93 % of control.
For `CC(=O)C1CO1` (stereo unspecified), the T/C (dose: 12.5 mg/kg/injection, schedule: Q01DX005 (ip), vehicle: saline) was 105 % of control, the T/C [8] was 107 % of control and the T/C [9] was 110 % of control and 116 % of control.
For `CCC(c1ccc(OCC(=O)N/N=C2/CCC3C4CCc5cc(O)ccc5C4CCC23C)cc1)C(CC)c1ccc(OCC(=O)N/N=C2\CCC3C4CCc5cc(O)ccc5C4CCC23C)cc1` (stereo unspecified), the T/C (dose: 25.0 mg/kg/injection, schedule: Q01DX001 (ip), vehicle: Klucel (hydroxypropylcellulose) (HPC)) was 98 % of control and the T/C (dose: 50.0 mg/kg/injection, schedule: Q01DX001 (ip), vehicle: Klucel (hydroxypropylcellulose) (HPC)) was 90 % of control.
`CC(=O)C1(C)CC=CCC1C(=O)O` (stereo unspecified) was tested, and the T/C [5] was 100 % of control, the T/C [6] was 100 % of control and the T/C (dose: 400.0 mg/kg/injection, schedule: Q01DX009 (ip), vehicle: saline) was 100 % of control.
In the case of `COCC(=O)C1(O)Cc2c(O)c3c(c(O)c2C(O)C1)C(=O)c1c(OC)cccc1C3=O` (stereo unspecified), the T/C (dose: 1.56 mg/kg/injection, schedule: Q01DX009 (ip), vehicle: other) is reported as 92 % of control, the T/C (dose: 3.13 mg/kg/injection, schedule: Q01DX009 (ip), vehicle: other) is reported as 101 % of control and the T/C (dose: 6.25 mg/kg/injection, schedule: Q01DX009 (ip), vehicle: other) is reported as 101 % of control. The T/C (dose: 12.5 mg/kg/injection, schedule: Q01DX009 (ip), vehicle: other) was 94 % of control and the T/C (dose: 25.0 mg/kg/injection, schedule: Q01DX009 (ip), vehicle: other) was 92 % of control.
With `Cn1c(=O)c2c(ncn2-c2ccc(N)cn2)n(C)c1=O` the T/C (dose: 12.5 mg/kg/injection, schedule: Q01DX005 (ip), vehicle: distilled water + alcohol) was 98 % of control, the T/C (dose: 25.0 mg/kg/injection, schedule: Q01DX005 (ip), vehicle: distilled water + alcohol) was 104 % of control and the T/C [1] was 96 % of control. For the same compound, the T/C (dose: 50.0 mg/kg/injection, schedule: Q01DX005 (ip), vehicle: distilled water + alcohol) was 100 % of control.
With `O=N[O-].[Co].[NH2-].[NH2-].[NH2-].[NH2-].[NH2-]` the T/C [10] was 90 % of control, the T/C [3] was 95 % of control and the T/C [4] was 95 % of control.
`CCCSCCCC(=O)O` was tested, and the T/C (dose: 50.0 mg/kg/injection, schedule: Q01DX009 (ip), vehicle: Klucel (hydroxypropylcellulose) (HPC)) was 100 % of control, the T/C (dose: 100.0 mg/kg/injection, schedule: Q01DX009 (ip), vehicle: Klucel (hydroxypropylcellulose) (HPC)) was 100 % of control and the T/C (dose: 200.0 mg/kg/injection, schedule: Q01DX009 (ip), vehicle: Klucel (hydroxypropylcellulose) (HPC)) was 104 % of control.
For `COc1cc2c3cc1Oc1c(OC)c(OC)cc4c1[C@@H](Cc1ccc(OC)c(c1OC)Oc1ccc(cc1)C[C@@H]3N(C)CC2)N(C)CC4`, the T/C (dose: 3.63 mg/kg/injection, schedule: Q01DX005 (ip), vehicle: Klucel (hydroxypropylcellulose) (HPC)) was 103 % of control, the T/C (dose: 7.25 mg/kg/injection, schedule: Q01DX005 (ip), vehicle: Klucel (hydroxypropylcellulose) (HPC)) was 99 % of control and the T/C (dose: 14.5 mg/kg/injection, schedule: Q01DX005 (ip), vehicle: Klucel (hydroxypropylcellulose) (HPC)) was 102 % of control. The T/C (dose: 29.0 mg/kg/injection, schedule: Q01DX005 (ip), vehicle: Klucel (hydroxypropylcellulose) (HPC)) was 93 % of control and the T/C (dose: 58.0 mg/kg/injection, schedule: Q01DX005 (ip), vehicle: Klucel (hydroxypropylcellulose) (HPC)) was 109 % of control.
With `Cc1nnc2sc3c(Cl)c4nn5c(C)nnc5sc4c(Cl)c3nn12` the T/C (dose: 0.78 mg/kg/injection, schedule: Q01DX009 (ip), vehicle: saline with Tween-80) was 94 % of control, the T/C (dose: 1.56 mg/kg/injection, schedule: Q01DX009 (ip), vehicle: saline with Tween-80) was 97 % of control and the T/C (dose: 3.13 mg/kg/injection, schedule: Q01DX009 (ip), vehicle: saline with Tween-80) was 92 % of control.
`CCC1(O)CC(OC2CC(O)C(O)C(C)O2)c2c(O)c3c(c(O)c2C1C(=O)OC)C(=O)c1cccc(O)c1C3=O` (stereo unspecified) was tested, and the T/C (dose: 1.56 mg/kg/injection, schedule: Q04DX003 (ip), vehicle: water) was 104 % of control, the T/C (dose: 3.13 mg/kg/injection, schedule: Q04DX003 (ip), vehicle: water) was 103 % of control and the T/C (dose: 6.25 mg/kg/injection, schedule: Q04DX003 (ip), vehicle: water) was 103 % of control. The T/C (dose: 12.5 mg/kg/injection, schedule: Q04DX003 (ip), vehicle: water) was 109 % of control, the T/C (dose: 25.0 mg/kg/injection, schedule: Q04DX003 (ip), vehicle: water) was 109 % of control and the T/C (dose: 50.0 mg/kg/injection, schedule: Q04DX003 (ip), vehicle: water) was 104 % of control. The T/C (dose: 100.0 mg/kg/injection, schedule: Q04DX003 (ip), vehicle: water) was 119 % of control and the T/C (dose: 200.0 mg/kg/injection, schedule: Q04DX003 (ip), vehicle: water) was 109 % of control.
